The source of these data is ChEMBL document CHEMBL4680137, “Synthesis and biological evaluation of some novel 1,2,3-triazole hybrids of myrrhanone B isolated from Commiphora mukul gum resin: Identification of potent antiproliferative leads active against prostate cancer cells (PC-3)” (Eur J Med Chem, 2020).

One assay relates to U-87 MG. Put plainly: Antiproliferative activity against human U87 cells assessed as reduction in cell viability after 48 hrs by MTT assay. The class given is functional, cell-based, U-87MG ATCC. In general terms: Tetrazolium dyes change colour on reduction, which living cells bring about.
The subject of the next assay is HT-29. Description: Antiproliferative activity against human HT-29 cells assessed as reduction in cell viability after 48 hrs by MTT assay. The assay is classed as functional, cell-based. Particulars: HT-29, 48 h.
In the next assay the test system is A549. Put plainly: Antiproliferative activity against human A549 cells assessed as reduction in cell viability after 48 hrs by MTT assay. The class given is functional, cell-based. The following applies: A549, 48 h.
The next assay relates to L132. Description: Cytotoxicity against human L132 cells assessed as reduction in cell viability after 48 hrs by MTT assay. The class given is cell-based. Particulars: L132, 48 h.
A further assay relates to DU-145. Put plainly: Antiproliferative activity against human DU-145 cells assessed as reduction in cell viability after 48 hrs by MTT assay. The assay is classed as functional, cell-based. The following applies: DU-145, 48 h.
For assay [1], the system named is PC-3. Put plainly: Antiproliferative activity against human PC3 cells assessed as reduction in cell viability after 48 hrs by MTT assay. The assay is classed as functional, cell-based. Particulars: PC-3, 48 h.
In another assay the test system is SiHa. Put plainly: Antiproliferative activity against human SiHa cells assessed as reduction in cell viability after 48 hrs by MTT assay. The class given is functional, cell-based.
In another assay the test system is MDA-MB-231. Description: Antiproliferative activity against human MDA-MB-231 cells assessed as reduction in cell viability after 48 hrs by MTT assay. The class given is functional, cell-based. The following applies: MDA-MB-231, 48 h.
The nature of assay [2]: Inhibition of Saccharomyces cerevisiae alpha-glucosidase using p-nitophenyl alpha […]D-glucoside incubated for 45 mins.
Assay [3] can be described thus: Inhibition of LPS-induced TNF-alpha expression in human U-937 cells preincubated for 1 hr followed by LPS addition and measured after 24 hrs by ELISA. The assay is classed as functional, cell-based. A general note: An ELISA detects its analyte on a solid surface through an enzyme-linked reagent.
Assay [4] has as its system Saccharomyces cerevisiae. Description: Potency index, ratio of acarbose IC50 to test compound IC50 for inhibition of Saccharomyces cerevisiae alpha-glucosidase.
Assay [5] is described as follows: Inhibition of LPS-induced IL-1beta expression in human U-937 cells preincubated for 1 hr followed by LPS addition and measured after 24 hrs by ELISA. The class given is functional, cell-based.
Assay [6] relates to Saccharomyces cerevisiae. Description: Potency index, ratio of Myrrhanone-B IC50 to test compound IC50 for inhibition of Saccharomyces cerevisiae alpha-glucosidase.
The test system of assay [7] is PC-3. Description: Induction of cell cycle arrest in human PC-3 cells assessed as accumulation at G0/G1 phase at 5 uM after 48 hrs by propidium iodide staining based flow cytometric analysis (reference value: 67.6%). The assay is classed as functional.
Assay [8] relates to PC-3. Put plainly: Induction of cell cycle arrest in human PC-3 cells assessed as accumulation at Sub-G1 phase at 10 uM after 48 hrs by propidium iodide staining based flow cytometric analysis (reference value: 3.58%). The class given is functional. For orientation: In flow cytometry, cells or beads pass a laser one at a time.
The test system of assay [9] is PC-3. Description: Induction of apoptosis in human PC-3 cells assessed as late apoptotic cells at 5 uM after 24 hrs by Annexin VFITC/PI staining based flow cytometric analysis (reference value: 0.2%). The assay is classed as functional.
Assay [10] has as its system PC-3. Description: Induction of apoptosis in human PC-3 cells assessed as fragmented nuclei at 5 to 10 uM after 48 hrs by Hoechst 33258 staining fluorescence microscopic analysis. The class given is functional, cell-based. The following applies: dose 5-10 µM.
Assay [11] deals with PC-3. Description: Induction of cell cycle arrest in human PC-3 cells assessed as accumulation at G0/G1 phase at 10 uM after 48 hrs by propidium iodide staining based flow cytometric analysis (reference value: 67.6%). The assay is classed as functional.
In assay [12] the test system is PC-3. Description: Induction of cell cycle arrest in human PC-3 cells assessed as accumulation at G2/M phase at 10 uM after 48 hrs by propidium iodide staining based flow cytometric analysis (reference value: 20.7%). The class given is functional.
For assay [13], the system named is PC-3. Put plainly: Induction of apoptosis in human PC-3 cells after 24 hrs by Annexin VFITC/PI staining based flow cytometric analysis. The assay is classed as functional, cell-based.
For assay [14], the system named is PC-3. Put plainly: Induction of apoptosis in human PC-3 cells assessed as condensed chromatin at 5 to 10 uM after 48 hrs by acridine orange and ethidium bromide staining fluorescence microscopic analysis. The class given is functional, cell-based. The following applies: dose 5-10 µM.
Assay [15] deals with PC-3. Put plainly: Induction of apoptosis in human PC-3 cells assessed as viable cells at 5 uM after 24 hrs by Annexin VFITC/PI staining based flow cytometric analysis (reference value: 95.8%). The assay is classed as functional. The following applies: read-out: Activity.
For assay [16], the system named is PC-3. Description: Induction of apoptosis in human PC-3 cells assessed as horse shoe shaped nuclei at 5 to 10 uM after 48 hrs by Hoechst 33258 staining fluorescence microscopic analysis. The assay is classed as functional, cell-based. Particulars: dose 5-10 µM.
The subject of assay [17] is PC-3. Description: Induction of apoptosis in human PC-3 cells assessed as destructive fragmentation of nuclei at 5 to 10 uM after 48 hrs by acridine orange and ethidium bromide staining fluorescence microscopic analysis. The class given is functional, cell-based. The following applies: dose 5-10 µM.
Assay [18] relates to PC-3. Description: Induction of apoptosis in human PC-3 cells assessed as early apoptotic cells at 5 uM after 24 hrs by Annexin VFITC/PI staining based flow cytometric analysis (reference value: 0.1%). The assay is classed as functional.
The test system of assay [19] is PC-3. Description: Induction of mitochondrial membrane potential loss in human PC-3 cells at 10 uM after 24 hrs by JC-1 dye based flow cytometric analysis relative to control. The assay is classed as functional.
For assay [20], the system named is PC-3. Description: Induction of apoptosis in human PC-3 cells assessed as condensed chromatin at 5 to 10 uM after 48 hrs by Hoechst 33258 staining fluorescence microscopic analysis. The class given is functional, cell-based. Particulars: dose 5-10 µM.
Assay [21] concerns PC-3. Put plainly: Induction of apoptosis in human PC-3 cells assessed as late apoptotic cells at 2.5 uM after 24 hrs by Annexin VFITC/PI staining based flow cytometric analysis (reference value: 0.2%). The class given is functional.
Assay [22] relates to PC-3. Put plainly: Induction of apoptosis in human PC-3 cells assessed as necrotic cells at 2.5 uM after 24 hrs by Annexin VFITC/PI staining based flow cytometric analysis (reference value: 4%). The class given is functional.
Assay [23] relates to PC-3. Description: Induction of ROS generation in human PC-3 cells at 10 uM incubated for 6 hrs by DSCFDA staining based spectroflurometric method. The assay is classed as functional, cell-based.
The test system of assay [24] is PC-3. Description: Induction of apoptosis in human PC-3 cells assessed as late apoptotic cells at 7.5 uM after 24 hrs by Annexin VFITC/PI staining based flow cytometric analysis (reference value: 0.2%). The assay is classed as functional.
For assay [25], the system named is PC-3. Put plainly: Induction of apoptosis in human PC-3 cells assessed as necrotic cells at 7.5 uM after 24 hrs by Annexin VFITC/PI staining based flow cytometric analysis (reference value: 4%). The assay is classed as functional.
The test system of assay [26] is PC-3. Put plainly: Induction of cell cycle arrest in human PC-3 cells assessed as accumulation at G2/M phase at 5 uM after 48 hrs by propidium iodide staining based flow cytometric analysis (reference value: 20.7%). The assay is classed as functional.
The subject of assay [27] is PC-3. Description: Induction of apoptosis in human PC-3 cells assessed as early apoptotic cells at 2.5 uM after 24 hrs by Annexin VFITC/PI staining based flow cytometric analysis (reference value: 0.1%). The assay is classed as functional.
For assay [28], the system named is PC-3. Description: Induction of apoptosis in human PC-3 cells assessed as early apoptotic cells at 7.5 uM after 24 hrs by Annexin VFITC/PI staining based flow cytometric analysis (reference value: 0.1%). The assay is classed as functional.
Assay [29] has as its system PC-3. Put plainly: Induction of cell cycle arrest in human PC-3 cells assessed as accumulation at S phase at 5 uM after 48 hrs by propidium iodide staining based flow cytometric analysis (reference value: 7.69%). The assay is classed as functional.
Assay [30] concerns PC-3. Description: Induction of cell cycle arrest in human PC-3 cells assessed as accumulation at S phase at 10 uM after 48 hrs by propidium iodide staining based flow cytometric analysis (reference value: 7.69%). The class given is functional.
Assay [31] deals with PC-3. Put plainly: Induction of apoptosis in human PC-3 cells assessed as necrotic cells at 5 uM after 24 hrs by Annexin VFITC/PI staining based flow cytometric analysis (reference value: 4%). The class given is functional.
Assay [32] concerns PC-3. Description: Induction of apoptosis in human PC-3 cells assessed as viable cells at 2.5 uM after 24 hrs by Annexin VFITC/PI staining based flow cytometric analysis (reference value: 95.8%). The class given is functional. Particulars: read-out: Activity.
Assay [33] has as its system PC-3. Description: Induction of apoptosis in human PC-3 cells assessed as viable cells at 7.5 uM after 24 hrs by Annexin VFITC/PI staining based flow cytometric analysis (reference value: 95.8%). The following applies: read-out: Activity. The class given is functional.
The subject of assay [34] is PC-3. Put plainly: Induction of cell cycle arrest in human PC-3 cells assessed as accumulation at Sub-G1 phase at 5 uM after 48 hrs by propidium iodide staining based flow cytometric analysis (reference value: 3.58%). The assay is classed as functional.

Structures are written as SMILES. Calls of active or inactive are those of the source. The rule behind the calls is not given here.

The term IC50 denotes the concentration needed to halve the response being measured. With `COc1cccc2c1C(=O)c1c(O)c3c(c(O)c1C2=O)C[C@@](O)(C(=O)CO)C[C@@H]3O[C@H]1C[C@H](N)[C@H](O)[C@H](C)O1` [DOXORUBICIN], the 50% inhibitory concentration (IC50) with U-87 MG worked out at 5.94 µM; in the assay with HT-29 it was 0.082 µM; in the assay on A549, 2.58 µM; with L132 it was 0.01 µM; in the assay on DU-145 it was 3.11 µM; with PC-3 [1], 5.05 µM. Further, the concentration for half-maximal inhibition (IC50) in the assay on SiHa came out at 0.311 µM; with MDA-MB-231 it was 0.034 µM.
Regarding `C/C(=C\CC/C(C)=C/CC[C@@H]1[C@@]2(C)CCC(=O)C(C)(C)[C@H]2CC[C@@]1(C)O)CC/C=C(\C)C(=O)O`, the half-inhibitory concentration (IC50) in assay [2] was 167 µM; in the assay on HT-29, 56.6 µM; in assay [3], 15.6 µM; in the assay on A549, above 150 µM; in the assay with L132, above 150 µM; with DU-145 it was above 150 µM. In addition, the values for the half-inhibitory concentration (IC50) in the assay with PC-3 [1], in the assay with SiHa and in the assay on MDA-MB-231 were 40.7 µM, 96.7 µM and 90.5 µM, respectively.
Regarding `C/C(=C\CC/C(C)=C/CC[C@@H]1[C@@]2(C)CCC(=O)C(C)(C)[C@H]2CC[C@@]1(C)O)CC/C=C(\C)C(=O)OCc1cn(-c2ccccc2[N+](=O)[O-])nn1`, the IC50 in [3] was 9.05 µM; in the assay on A549, above 150 µM; in the assay with L132, above 150 µM; with DU-145, above 150 µM; in [5], 8.97 µM. For the same compound, the values for the Ratio IC50 with Saccharomyces cerevisiae [4] and with Saccharomyces cerevisiae [6] were 767 and 60.2, respectively.
As for `C/C(=C\CC/C(C)=C/CC[C@@H]1[C@@]2(C)CCC(=O)C(C)(C)[C@H]2CC[C@@]1(C)O)CC/C=C(\C)C(=O)OCc1cn(C[C@@H]2O[C@H](n3ccc(=O)[nH]c3=O)C[C@H]2O)nn1`, the Activity with PC-3 [7] is 68.7%; in the assay on PC-3 [8] it was 40.8%; in the assay with PC-3 [9] it was 12.5%; in the assay with PC-3 [11], 41%; with PC-3 [12], 11.1%; in the assay with PC-3 [13] it was “Dose-dependent effect”. The Activity with PC-3 [18] is reported as 59.4%; in the assay on PC-3 [19], 38%; with PC-3 [21] it was 8.6%; in the assay on PC-3 [22], 0.9%; in the assay with PC-3 [24] it was 12.8%; in the assay with PC-3 [25], 1%. In addition, the Activity with PC-3 [26] is reported as 16.6%; with PC-3 [27], 64.6%; in the assay with PC-3 [28] it was 58.3%; with PC-3 [29], 8.38%; in the assay with PC-3 [30] it was 6.76%; with PC-3 [31] it was 1%. The Activity in the assay on PC-3 [34] is 5.96%. Further, the result in the assay with PC-3 [10], with PC-3 [14], in the assay with PC-3 [16], in the assay with PC-3 [17], in the assay on PC-3 [20] and in the assay with PC-3 [23] was Active. The IC50 in the assay on U-87 MG worked out at 75.8 µM; with HT-29, 34.1 µM; in assay [3], 8.88 µM; in the assay on A549 it was 28.1 µM; in the assay with L132, 148 µM; in the assay on DU-145 it was 33.1 µM. Further, the concentration for half-maximal inhibition (IC50) is 10.8 µM with PC-3 [1], 9.25 µM in assay [5], 29.3 µM with SiHa and 26.3 µM in the assay on MDA-MB-231. In addition, the viability at 5 µM with PC-3 [15] was 27.1%. The viability at 2.5 µM with PC-3 [32] came to 26.9%. Moreover, in the assay with PC-3 [33], the viability at 7.5 µM came out at 27.9%.
